Laboratory results reported in paper PMC10766610, “DCAF1-based PROTACs with activity against clinically validated targets overcoming intrinsic- and acquired-degrader resistance” (Nature Communications, 2024).
Read-outs that look alike come from different tables or passages of the source.

Key:
[1] = target: T1, DCAF1(WDR) (Homo sapiens, UniProt Q9Y4B6, E1398S); assay: DCAF1 TR-FRET competition assay, standard binary format; assay type: binding
T1 construct: His6 (C); made in house; host or cells: Sf9 insect cells (baculovirus), co-expressed with BirA
Description: (§1) Competition assay conditions consist of 20 µL total volume in white 384-well plates (Greiner), in 30 mM phosphate buffer pH 7.4 containing 140 mM NaCl, 0.01% Tween20, 1 mM TCEP and 1% final DMSO. Tested compounds at 14 different concentrations were pre-incubated at 22 °C for 30 min with a large excess of 10 µM human BTK (G389-S659) or 10 µM human BRD9-BD(130-250) in the cooperative assay or with buffer in standard binary assay. […] Samples were then incubated at 22 °C for 30 min before reading using a Tecan infinite M-1000 or PheraStar FSX (excitation 340 nm, emission 490 and 520 nm). DCAF1 protein was omitted in the negative control. IC50 fitting was carried out using an in-house developed software (Novartis Helios software application, unpublished, a publicly available alternative would be e.g., Graphpad Prism) using the methods described by Fomenko et al.[93] (regression algorithms for nonlinear dose-response curve fitting). Following normalization of activity values for the wells to % inhibition (% inhibition = [(high control-sample)/(high control-low control)] × 100). Data analysis could also be carried out using GraphPad Prism without prior normalization. The reported IC50 values are the average of at least two independent experiments.

[2] = target: T2, DCAF1(WDR) with additional 10 µM BTK (Homo sapiens, UniProt Q06187+Q9Y4B6, E1398S); assay: DCAF1 TR-FRET, cooperative format with 10 µM BTK; assay type: binding; details: cooperative format (+ BTK in Fig. 6b); ± SD (n); read-out: IC50 Alpha DCAF1 TR-FRET
T2 construct: 2 nM human DCAF1(1073-1399)_E1398S-Avi-His; human BTK (G389-S659); His6 (C); His (PreScission site) (N); made in house; host or cells: Sf9 insect cells (both chains)
Description: as §1

[3] = target: T3, BTK kinase domain (Homo sapiens, UniProt Q06187); assay: BTK EPK assay (enzymatic inhibition); assay type: biochemical
T3 construct: BTK kinase domain was mixed in assay buffer
Description: BTK kinase domain was mixed in assay buffer containing 50 mM HEPES pH 7.5, 0.02% Tween20, 0.02 % bovine serum albumin, 1 mM DTT, 0.01 mM Na3VO4, 10 mM b-Glycerolphosphate, 18 mM MgCl2, 1 mM MnCl2 to a 2× concentration of 8 nM. This solution was added to pre-dispensed compound dilution series in black, 384 well -low dead volume plates (Greiner) and the reaction was initiated by the addition of ATP and a BTK consensus peptide (Sequence: 5-Fluo-Ahx-[…]-Nle-P-Nle-NAND-NH2) to a final assay concentrations of 0.047 mM and 0.002 mM, respectively in assay buffer. The reaction was stopped after 60 min at 32 °C by addition of the same volume of spot solution containing 100 mM HEPES pH 7.5, 5% DMSO, 10 mM EDTA, 0.015% Brij 35. Stopped reactions were analyzed on a Caliper LC3000, which was treated with the commercially available coating reagents CR−3 and CR-8 as instructed by the manufacturer. The relative intensities of phosphorylated peptide were calculated. Data was normalized to control wells containing 100 mM EDTA solution instead of the 2× kinase solutions (0%) and DMSO-only control wells (100%). Normalized data was fitted using a sigmoidal fit.

[4] = target: T4, DCAF1(WDR) + BTK (Homo sapiens, UniProt Q06187+Q9Y4B6, E1398S); assay: SPR ternary binding assay, immobilized DCAF1(WDR), BTK (389-659) in buffer; details: Fig. 6b
T4 construct: BTK (389-659) or BRD9; His6 (C); His (PreScission site) (N); made in house; host or cells: Sf9 insect cells (both chains)
From the text: Supplementary figure 8. SPR data of binary and ternary DCAF1-BTK PROTACs
without additional BTK as analytes. […] In
the middle panel the steady state fit responses are blotted against the PROTAC concentrations The
Source data are provided as a Source Data file

[5] = target: BTK (Homo sapiens, UniProt Q06187); assay: Intracellular BTK engagement NanoBRET, intact HEK293A cells; assay type: cell-based; details: 2 h, read-out: IC50 BTK target engagement
Description: Thus, HEK293A cells were batch-transfected by adding 1 μg pLenti6 BTK-Nanoluc vector and 9 μg Transfection Carrier DNA (pcDNA3.1 Hygro+) to 1 mL of Opti-MEM without phenol red (Thermo Fisher). After addition of 40 μL ViaFect (Promega) and incubation for 20 min, the DNA:lipid mixture was added to trypsinized HEK293A cells suspended at 2 × 10^5/mL in 10 ml growth medium. 100 μL of the resulting cell:DNA:lipid suspension was then seeded at 2 × 10^4 cells/well into white, clear-bottom 96-well plates (Costar) that were pre-coated with poly-D-Lysine by incubation for 60 min with 30 μL of a sterile-filtered solution of 0.1 mg PDL (Mpbio) dissolved in phosphate-buffered saline, followed by a wash with 200 μL sterile phosphate-buffered and airdrying. […] To measure BRET, NanoBRET NanoGlo substrate (Promega, final dilution of 1:1000) and Extracellular NanoLuc Inhibitor (Promega, final concentration 20 μM) were added, followed by quantification of donor and acceptor luminescence emission on a Pherastar FX (BMG Labtech) multimode reader using 460 nm band-pass and 610 nm long-pass filters, respectively. […]
The mBU values for each treated sample was then divided by the average mBU value determined based on four DMSO-treated vehicle control samples and multiplied by 100 to arrive at % of vehicle-treated control. […]

[6] = ± SD (n), read-out: IC50 DCAF1 TR-FRET

T1 sequence (Q9Y4B6 1073-1399 E1398S): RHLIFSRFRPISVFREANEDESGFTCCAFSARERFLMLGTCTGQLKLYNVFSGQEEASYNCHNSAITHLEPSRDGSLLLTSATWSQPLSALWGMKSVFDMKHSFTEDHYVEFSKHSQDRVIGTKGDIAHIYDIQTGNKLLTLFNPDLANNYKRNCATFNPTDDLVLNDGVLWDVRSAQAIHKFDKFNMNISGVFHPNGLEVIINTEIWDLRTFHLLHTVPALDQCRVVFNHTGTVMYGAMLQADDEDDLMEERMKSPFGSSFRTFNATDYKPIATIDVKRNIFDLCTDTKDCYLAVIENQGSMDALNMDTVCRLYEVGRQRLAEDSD
T3 sequence (Q06187 402-655 limits assumed): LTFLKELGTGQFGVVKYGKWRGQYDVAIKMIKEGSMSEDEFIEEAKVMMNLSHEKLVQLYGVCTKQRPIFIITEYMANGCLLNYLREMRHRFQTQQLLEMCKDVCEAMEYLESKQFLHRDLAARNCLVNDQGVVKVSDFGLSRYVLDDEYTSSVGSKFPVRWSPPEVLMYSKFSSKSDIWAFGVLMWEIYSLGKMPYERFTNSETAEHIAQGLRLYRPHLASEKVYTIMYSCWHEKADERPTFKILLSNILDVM
T4 sequence (Q9Y4B6 1073-1399 E1398S): as the sequence (Q9Y4B6 1073-1399 E1398S) above
T4 sequence (Q06187 389-659): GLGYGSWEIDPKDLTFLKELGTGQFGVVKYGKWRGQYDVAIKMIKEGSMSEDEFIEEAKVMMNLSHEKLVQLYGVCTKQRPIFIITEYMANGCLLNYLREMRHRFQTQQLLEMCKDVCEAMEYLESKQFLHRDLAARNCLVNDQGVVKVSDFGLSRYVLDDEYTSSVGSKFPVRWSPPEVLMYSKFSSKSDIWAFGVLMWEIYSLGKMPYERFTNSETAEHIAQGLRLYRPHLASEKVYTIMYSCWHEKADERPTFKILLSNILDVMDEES
T2 sequence (Q9Y4B6 1073-1399 E1398S): as the sequence (Q9Y4B6 1073-1399 E1398S) above
T2 sequence (Q06187 389-659): as the sequence (Q06187 389-659) above
BTK, sequence (Q06187 2-659 limits assumed): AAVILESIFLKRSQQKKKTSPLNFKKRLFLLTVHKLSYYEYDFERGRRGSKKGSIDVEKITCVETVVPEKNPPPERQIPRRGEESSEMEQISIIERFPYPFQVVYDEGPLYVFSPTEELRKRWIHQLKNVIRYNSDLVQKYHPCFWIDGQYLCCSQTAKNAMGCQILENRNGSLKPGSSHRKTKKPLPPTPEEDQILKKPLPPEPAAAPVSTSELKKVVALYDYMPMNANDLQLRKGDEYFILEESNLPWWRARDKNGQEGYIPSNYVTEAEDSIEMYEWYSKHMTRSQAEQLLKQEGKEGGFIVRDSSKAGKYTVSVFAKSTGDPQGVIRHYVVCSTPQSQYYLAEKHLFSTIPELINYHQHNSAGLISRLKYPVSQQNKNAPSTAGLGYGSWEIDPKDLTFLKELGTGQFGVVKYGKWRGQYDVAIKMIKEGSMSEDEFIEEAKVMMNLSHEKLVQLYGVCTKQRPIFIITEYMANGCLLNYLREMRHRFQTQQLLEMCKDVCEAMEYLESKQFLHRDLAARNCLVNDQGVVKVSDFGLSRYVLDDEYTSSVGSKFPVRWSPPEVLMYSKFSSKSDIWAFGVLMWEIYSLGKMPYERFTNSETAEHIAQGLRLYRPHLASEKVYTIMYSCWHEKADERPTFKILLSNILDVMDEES

Structure (SMILES)	IC50 ([1]; binary, compound alone, spread in brackets, read-out: TR-FRET Q. IC50) [nM]	IC50 [2] [nM]	IC50 [3] [nM]	Kd [4] [nM]	IC50 [1, 6] [nM]	IC50 [5] [nM]
COc1cc(-c2cn(C)c(=O)c3cnccc23)c(OC)cc1CN1CCC(OCCCCCC(=O)N2CCN(c3ccc4c(NCCN)nc(C5(c6ccc(Cl)cc6)CCCCC5)nc4c3)CC2)CC1 [DBr-1]	38	–	–	–	–	–
Cc1c(NC(=O)c2ccc(C(C)(C)O)cc2F)cc(F)cc1-c1ncnc2[nH]c(-c3ccc(CNCCOCCOCCOCCOCCOCCOCCOCCOCCOCCOCCOCCOCCC(=O)N4CCN(c5ccc6c(NCCN)nc(C7(c8ccc(Cl)cc8)CCCCC7)nc6c5)CC4)cc3)cc12 [DBt-5]	–	282 ± 84	62	480	23 ± 5	392
Cc1c(NC(=O)N2CC(O)(CC(C)(C)C)C2)cc(F)cc1-c1ncnc2[nH]c(-c3cnn(CC(=O)N4CCC5(CC4)CN(CCNC(=O)CCCC(=O)N4CCN(c6ccc7c(NCCN)nc(C8(c9ccc(Cl)cc9)CCCCC8)nc7c6)CC4)CCO5)c3)cc12 [DBt-10]	–	82 ± 39	44	33	134 ± 68	1680
